In patent US6743363B2, “Method of bacteriostasis or disinfection for permselective membrane” (Toray Industries, Inc., priority 1998, dated 2004):
Read-outs that look alike come from different tables or passages of the source.

What was measured:
[1] = test system: E. coli; test: Survival rate of cells in 3.5% artificial seawater: E. coli; type: cell-based, Escherichia coli
Protocol: (§1) For comparison, 500 ppm of sodium bisulfite was added in place of sulfuric acid, and the data obtained are also shown in Table 1.

[2] = test system: suspension of a solid deposit on a reverse osmosis membrane having been used in seawater desalination; test: Survival rate of cells in 3.5% artificial seawater: suspension of deposit on membrane; type: cell-based
Protocol: as §1

[3] = test system: un-identified bacteria as separated from the solid deposit suspension; test: Survival rate of cells in 3.5% artificial seawater: cells from deposit on membrane; type: cell-based
Protocol: as §1

[4] = test system: marine bacteria; test: Colonies formed on agar medium for marine bacteria from treated seawater mixture; type: cell-based; details: 200 ppm of sulfuric acid, pH 2.8, for 2 hours at 20° C.; 0.1 ml plated on agar pH 7; untreated pH 8.5 gave 200
Protocol: 1% of seawater was added to commercially-available, 3.5% artificial seawater having been subjected to pressure disinfection (at 120° C. for 15 minutes), and the pH of the resulting seawater mixture was measured to be 8.5. After having been kept at 20° C. for 2 hours, 0.1 ml of the seawater mixture was applied onto an agar medium for marine bacteria, of which the pH value had been controlled to be 7, and then kept warmed at 20° C.
The pH of the resulting seawater mixture was 2.8. After having been kept at 20° C. for 2 hours, 0.1 ml of the seawater mixture was applied onto an agar medium for marine bacteria, of which the pH value had been controlled to be 7.

[5] = test system: living cells in the concentrate; details: Example 1: sulfuric acid pH 3.5 to 4, 30 min/day, running days 1 to 30
Text: The invention is described concretely with reference to the following Examples, which, however, are not intended to restrict the scope of the invention. In these Examples, the disinfecting effect is represented by the number of living microorganisms, the pressure loss in membrane modules and the consumption of sodium bisulfite (SBS).
Two membrane separation units each having a reverse osmosis membrane of polyamide were driven for seawater desalination through reverse osmosis filtration to produce fresh water. […] In that condition, the two units were continuously driven for 1 month. […] While the units were driven under the condition, the number of the living cells in the concentrate having passed through each unit was counted.

[6] = test system: acid-resistant bacteria
Protocol: Two membrane separation systems (systems A and B) each comprising a pre-treatment unit and a membrane separation unit having a reverse osmosis membrane module of polyamide were driven for seawater desalination through reverse osmosis filtration to produce fresh water. In these, a culture of the acid-resistant bacteria having been obtained in Reference Example 3 was added to the pre-treated seawater. […] In those conditions, the two systems were continuously driven for 30 days. […] While the systems were driven under the defined conditions, the number of living cells in the concentrate was counted.

[7] = test system: Escherichia coli K12 IFO 3301; details: physiological saline 0.9%
[8] = test system: Acid-resistant Bacteria 1
[9] = test system: Acid-resistant Bacteria 2
[10] = test system: Acid-resistant Bacteria 3
[11] = 100 ppm, 2.5 hr, pH 5.1, 20° C.
[12] = 120 ppm, 0.5 hr, pH 4.0, 20° C.
[13] = 120 ppm, 2.5 hr, pH 4.0, 20° C.
[14] = 150 ppm, 0.5 hr, pH 3.3, 20° C.
[15] = 200 ppm, 0.5 hr, pH 2.9, 20° C.
[16] = 300 ppm, 0.5 hr, pH 2.5, 20° C.
[17] = 250 ppm, 0.5 hr, pH 2.6, 20° C.
[18] = 250 ppm, 2.5 hr, pH 2.6, 20° C.
[19] = 300 ppm, 0.5 hr, pH 2.6, 20° C.
[20] = 500 ppm, 2.5 hr, pH 5.9, 20° C.

O=S(=O)(O)O [Sulfuric Acid, sulfuric acid]
Survival Rate (%) E. coli [1, 11]: 107% | Survival Rate (%) E. coli [1, 12]: 105% | Survival Rate (%) E. coli [1, 13]: 93% | Survival Rate (%) E. coli [1, 14]: <1% | Survival Rate (%) E. coli [1, 15]: <1% | Survival Rate (%) E. coli [1, 16]: <1% | Survival Rate (%) Suspension of Deposit on Membrane [2, 11]: 60% | Survival Rate (%) Suspension of Deposit on Membrane [2, 12]: 37% | Survival Rate (%) Suspension of Deposit on Membrane [2, 13]: 15% | Survival Rate (%) Suspension of Deposit on Membrane [2, 14]: <1% | Survival Rate (%) Suspension of Deposit on Membrane [2, 15]: <1% | Survival Rate (%) Suspension of Deposit on Membrane [2, 16]: <1% | Survival Rate (%) Cells from Deposit on Membrane [3, 11]: 81% | Survival Rate (%) Cells from Deposit on Membrane [3, 14]: <1% | Survival Rate (%) Cells from Deposit on Membrane [3, 15]: <1% | Survival Rate (%) Cells from Deposit on Membrane [3, 16]: <1% | Number of Colonies Formed [4]: 3 | Number of Living Cells in the concentrate, compared with the unit not subjected to the sulfuric acid treatment [5]:  1/100 or less | Number of Living Cells in the concentrate, compared with the unit not subjected to the sulfuric acid treatment ([5]; listed as sulfuric acid): 1/100 | Ratio of Living Microbes in Concentrate ([6]; pH 2.6, 30 minutes a day): <1 | Ratio of Living Microbes in Concentrate ([6]; pH 3.5 to 4.0, 30 minutes a day): 100 | Ratio of Living Microbes in Concentrate ([6]; pH 3.5 to 4.0, 30 minutes a day, plus pH 2.6, 30 minutes a day (once at intervals of 5 days)): <1 | survival rate of the cells ([7]; 10 ppm of sulfuric acid, pH 4.7, 20° C., 2.5 hours): ≥ 90% | survival rate of the cells ([7]; 50 ppm of sulfuric acid, pH 3.2, 20° C., 0.5 hours): 90% | survival rate of the cells ([7]; 50 ppm of sulfuric acid, pH 3.2, 20° C., 1 hour): 20% | survival rate of the cells ([7]; 50 ppm of sulfuric acid, pH 3.2, 20° C., 2.5 hours): ≤ 1% | survival rate of the cells ([7]; 100 ppm of sulfuric acid, 20° C., 0.5 hours): ≤ 1% | Survival Rate (%) Acid-resistant Bacteria 1 ([8]; 200 ppm, 1 hr, pH 2.8, 20° C.): 50% | Survival Rate (%) Acid-resistant Bacteria 1 [8, 17]: 17% | Survival Rate (%) Acid-resistant Bacteria 1 ([8]; 250 ppm, 1 hr, pH 2.6, 20° C.): <1% | Survival Rate (%) Acid-resistant Bacteria 1 [8, 18]: <1% | Survival Rate (%) Acid-resistant Bacteria 1 [8, 19]: 8% | Survival Rate (%) Acid-resistant Bacteria 1 ([8]; 300 ppm, 1 hr, pH 2.4, 20° C.): <1% | Survival Rate (%) Acid-resistant Bacteria 2 ([9]; 200 ppm, 1 hr, pH 2.8, 20° C.): 22% | Survival Rate (%) Acid-resistant Bacteria 2 [9, 17]: 33% | Survival Rate (%) Acid-resistant Bacteria 2 ([9]; 250 ppm, 1 hr, pH 2.6, 20° C.): 2% | Survival Rate (%) Acid-resistant Bacteria 2 [9, 18]: <1% | Survival Rate (%) Acid-resistant Bacteria 2 [9, 19]: 1% | Survival Rate (%) Acid-resistant Bacteria 2 ([9]; 300 ppm, 1 hr, pH 2.4, 20° C.): <1% | Survival Rate (%) Acid-resistant Bacteria 3 ([10]; 200 ppm, 1 hr, pH 2.8, 20° C.): <1% | Survival Rate (%) Acid-resistant Bacteria 3 [10, 17]: 1% | Survival Rate (%) Acid-resistant Bacteria 3 ([10]; 250 ppm, 1 hr, pH 2.6, 20° C.): <1% | Survival Rate (%) Acid-resistant Bacteria 3 [10, 18]: <1% | Survival Rate (%) Acid-resistant Bacteria 3 [10, 19]: <1% | Survival Rate (%) Acid-resistant Bacteria 3 ([10]; 300 ppm, 1 hr, pH 2.4, 20° C.): <1%

O=S([O-])O.[Na+] [Sodium Bisulfite, sodium bisulfite, reference compound]
Survival Rate (%) E. coli [1, 20]: 98% | Survival Rate (%) Suspension of Deposit on Membrane [2, 20]: 90% | Survival Rate (%) Cells from Deposit on Membrane [3, 20]: 86%
